The values below come from US20240376094A2, “SELECTIVE BCL-XL PROTAC COMPOUNDS AND METHODS OF USE” (Les Laboratoires Servier, priority 2021, published 2024).

The GI50 is the concentration at which growth is held to half of that of the control.

Test [1] has as its system EBC-1 lung cancer cell line. The experiment in a line: EBC-1 cell proliferation, CellTiter-Glo assay. Format: cell-based. As to conditions: Homo sapiens, 120 h; Ebc-1 cell viability, CTG assay, 5 days of treatment; read-out: CTG 5 day Ebc1 GI50. Put shortly:
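CellTiter-Glo read-out after 5-day compound treatment, normalised to untreated cells, with GI50 derived by four-parameter logistic regression. Ten concentrations spanning 0.508 nM–10 μM were added to 1000 EBC-1 cells per well the day after seeding. Assays required at least one cell doubling versus Day 0.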
On the technique in general: In ATP-based viability assays light output follows the ATP content of the culture.

The target of a further test is T1, HiBiT-tagged BCL-xL (Homo sapiens, UniProt Q07817).
T1 construct: expressed in transfected cells; host or cells: NCI-H1650 (ATCC No. CRL-5883), engineered HiBiT cell line
T1 sequence (Q07817 whole entry): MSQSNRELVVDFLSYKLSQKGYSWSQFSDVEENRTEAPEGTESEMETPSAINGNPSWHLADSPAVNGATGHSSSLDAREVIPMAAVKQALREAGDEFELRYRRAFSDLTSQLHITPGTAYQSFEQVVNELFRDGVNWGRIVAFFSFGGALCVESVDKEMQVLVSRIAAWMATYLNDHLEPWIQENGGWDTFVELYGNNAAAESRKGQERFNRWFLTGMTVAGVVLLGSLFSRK
The experiment in a line: NCI-H1650 BCL-xL protein levels, Nano-Glo HiBiT Lytic Detection. The settings on record: NCI-H1650 expressing HiBiT-tagged BCL-xL, overnight incubation, read-out: Bcl-xl HIBIT NCIH1650 DC50. It counts as cell-based. In a few lines: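 HiBiT luminescence after cell lysis with LgBiT/furimazine reagent reported BCL-xL levels, expressed relative to untreated wells and fitted with a four-parameter logistic equation. Engineered NCI-H1650 cells were exposed overnight at 37° C to compound at final 0.508 nM-10 μM (10 points, triplicate plates).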

As for `Cc1ncsc1-c1ccc([C@H](C)NC(=O)[C@@H]2C[C@@H](O)CN2C(=O)[C@@H](NC(=O)CCCCCCCCCCCCCCCN(C)CCOC23CC4(C)CC(C)(CC(Cn5ncc(-c6ccc(N7CCCc8c7nnc(Nc7nc9ccccc9s7)c8C)nc6C(=O)O)c5C)(C4)C2)C3)C(C)(C)C)cc1` [Example 1, 6-[3-(1,3-benzothiazol-2-ylamino)-4-methyl-6,7-dihydro-5H-pyrido[2,3-c]pyridazin-8-yl]-3-[1-[[3-[2-[[16-[[(1S)-1-[(2S,4R)-4-hydroxy-2-[[(1S)-1-[4-(4-methylthiazol-5-yl)phenyl]ethyl]carbamoyl]pyrrolidine-1-carbonyl]-2,2-dimethyl-propyl]amino]-16-oxo-hexadecyl]-methyl-amino]ethoxy]-5,7-dimethyl-1-adamantyl]methyl]-5-methyl-pyrazol-4-yl]pyridine-2-carboxylic acid], the GI50 in test [1] came out at 5 nM. In addition, the DC50 at HiBiT-tagged BCL-xL is 1 nM.
In the same order, the values of `Cc1ncsc1-c1ccc([C@H](C)NC(=O)[C@@H]2C[C@@H](O)CN2C(=O)[C@@H](NC(=O)CCCCCCCCCCC(=O)N2CCN(CC#Cc3ccc(OCCCc4sc(N5CCCc6c5nnc(Nc5nc7ccccc7s5)c6C)nc4C(=O)O)c(F)c3)CC2)C(C)(C)C)cc1` [Example 46, 2-(3-(benzo[d]thiazol-2-ylamino)-4-methyl-6,7-dihydropyrido [2,3-c]pyridazin-8(5H)-yl)-5-(3-(2-fluoro-4-(3-(4-(12-(((S)-1-((2S,4R)-4-hydroxy-2-(((S)-1-(4-(4-methylthiazol-5-yl)phenyl)ethyl)carbamoyl)pyrrolidin-1-yl)-3,3-dimethyl-1-oxobutan-2-yl)amino)-12-oxododecanoyl)piperazin-1-yl)prop-1-yn-1-yl)phenoxy)propyl)thiazole-4-carboxylic acid] are 7 nM and 2 nM.
